Measured values: US20160082161A1, “DRUG-ELUTING MEDICAL DEVICES” (Ramot at Tel-Aviv University Ltd., priority 2008, published 2016)

Test: In vitro drug release from drug-eluting composite fibers in PBS
Assay type: physicochemical
Details: PBS pH 7.4, 37° C.; PDLGA porous coat
Protocol: The composite drug-eluting fibers were immersed in phosphate buffered saline (PBS) at 37° C. and pH 7.4 for 35 days (FTS) or 37 weeks (paclitaxel), in triplicates, in order to determine the release kinetics from the drug-loaded composite structures. Each test vial contained 2 fibers; each fiber was 5 cm long. The release studies were conducted in closed glass tubes containing 3 ml PBS medium, using a horizontal bath shaker operated at a constant rate of 130 rpm. The medium was removed completely at certain sampling time points, extracted from the aqueous medium as described herein and measured using HPLC. Fresh medium was then introduced. At the end of the experiment the fibers were immersed in methylene chloride and the residual amount of drug was measured.
The drug content of the medium samples was determined using Jasco High Performance Liquid Chromatography (HPLC) equipped with a UV 2075 plus detector and a quaternary gradient pump (PU 2089 plus). […] The paclitaxel content of the medium samples was determined using a reverse phase column (Zorbax ODS 5 μm, inner diameter 4.6 mm, length 150 mm), and kept at 25° C. […]
On the final day of the in vitro trial, residual FTS from composite drug-eluting fibers was measured as follows: the fibers were placed in 1 ml methylene chloride for 10 minutes and the coating shell was dissolved. […]

SMILES	Drug release from porous coat structures (time scale)
CC(C)=CCCC(C)=CCCC(C)=CCSc1ccccc1C(=O)O (stereo in doubt) [FTS, 2-((2E,6E)-3,7,11-trimethyldodeca-2,6,10-trienylthio)benzoic acid]	relatively fast FTS release within several weeks
CC(=O)O[C@H]1C(=O)[C@@]2(C)[C@H]([C@H](OC(=O)c3ccccc3)[C@]3(O)C[C@H](OC(=O)[C@H](O)[C@@H](NC(=O)c4ccccc4)c4ccccc4)C(C)=C1C3(C)C)[C@]1(OC(C)=O)CO[C@@H]1C[C@@H]2O [paclitaxel, Paclitaxel]	slower paclitaxel release within several months
